From PubChem BioAssay (NCI)
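Where inhibition never reached the appropriate level, the endpoint shown equals the highest concentration tested. Otherwise, values were interpolated linearly from a five-concentration, 48-hour dose response in 96-well plates. At the GI50, growth is halved. The concentration for full growth arrest is given as TGI.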

Legend:
Assay in all cases: NCI tumour cell line growth inhibition, 48 h
[1] = test system: ACHN renal
[2] = test system: MALME-3M melanoma
[3] = test system: SK-MEL-5 melanoma
[4] = test system: SK-MEL-28 melanoma
[5] = test system: OVCAR-3 ovarian
[6] = test system: SNB-75 CNS
[7] = test system: NCI-H460 lung
[8] = test system: KM12 colon
[9] = test system: MDA-MB-231 breast
[10] = test system: MDA-MB-435

| Structure (SMILES) | TGI [1] | TGI [2] | TGI [3] | TGI [4] | TGI [5] | TGI [6] | TGI [7] | TGI [8] | GI50 [9] | TGI [9] | GI50 [1] | GI50 [2] | GI50 [10] | TGI [10] | GI50 [3] | GI50 [4] | GI50 [5] | GI50 [6] | GI50 [7] | GI50 [8] |
| --- | --- | --- | --- | --- | --- | --- | --- | --- | --- | --- | --- | --- | --- | --- | --- | --- | --- | --- | --- | --- |
| O=C(Nc1nc(=S)[nH][nH]1)C(=O)C(C(=O)c1ccc2ccccc2c1)C1OC(=O)c2ccccc21 (stereo not given) | > 100 µM | > 100 µM | 43.9 µM | 49.1 µM | 67 µM | 63.1 µM | > 100 µM | > 100 µM |  |  |  |  |  |  |  |  |  |  |  |  |
| O=C(NC1C=CCC2C(=O)N(c3ccccc3)C(=O)C12)OCc1ccccc1 (stereo not given) | > 100 µM |  | > 100 µM | > 100 µM | > 100 µM | > 100 µM | > 100 µM | > 100 µM |  |  |  |  |  |  |  |  |  |  |  |  |
| O=C(O)CSc1n[nH]c(-c2ccccc2O)n1 | > 100 µM | > 100 µM | > 100 µM | > 100 µM | > 100 µM | > 100 µM | > 100 µM |  |  |  |  |  |  |  |  |  |  |  |  |  |
| Fc1cc(-c2nnc3n2N=C(c2ccc(Cl)cc2)CS3)c(Cl)cc1Cl | 9.58 µM | 10.5 µM | 15 µM | 34.8 µM | 35.8 µM | 21.9 µM | 37.4 µM | 36.4 µM | 6.57 µM | 18.2 µM | 3.22 µM | 2.75 µM | 4.97 µM | 18.4 µM | 3.91 µM | 7.56 µM | 13.6 µM | 7.33 µM | 18.2 µM | 13.1 µM |
| CC(=O)[O-].CC(=O)[O-].O=C(N/N=C/c1cc(Cl)cc(Cl)c1O)c1ccncc1.[Cu+2] | > 100 µM | > 100 µM | > 100 µM | > 100 µM | > 100 µM | > 100 µM | > 100 µM | > 100 µM |  |  |  |  |  |  |  |  |  |  |  |  |
| CCCCCCCCCCCCNC(=S)OC | 33 µM | 29.5 µM | 31 µM | 37.9 µM |  | 45 µM | 31.2 µM | 29.6 µM |  |  |  |  |  |  |  |  |  |  |  |  |
| Cc1ccc(S(=O)(=O)N2CCC2c2ccccc2)cc1 (stereo not given) | > 100 µM | > 100 µM | > 100 µM | > 100 µM | > 100 µM | > 100 µM | > 100 µM | > 100 µM |  |  |  |  |  |  |  |  |  |  |  |  |
| COc1ccc2c(c1)[n+]([O-])c(C(N)=O)c(N)[n+]2[O-] | > 100 µM | > 100 µM | > 100 µM | > 100 µM | 98.5 µM | > 100 µM | > 100 µM | > 100 µM |  |  |  |  |  |  |  |  |  |  |  |  |
| C[C@@]1(O)CC[C@]2(C)C3CCCC3[C@H]12 (stereo not given in full) | > 100 µM | > 100 µM | > 100 µM | > 100 µM | > 100 µM | > 100 µM | > 100 µM | > 100 µM |  |  |  |  |  |  |  |  |  |  |  |  |
| CN(C)C(=S)/N=c1\ssc(=S)n1C1CCCCC1 | > 100 µM | 64.8 µM | 73.2 µM | > 100 µM |  | > 100 µM | > 100 µM | > 100 µM |  |  |  |  |  |  |  |  |  |  |  |  |
| N#CC(C(=O)CCC(=O)Nc1ccc(Cl)c(Cl)c1)c1ccccc1 (stereo not given) | > 100 µM | > 100 µM | > 100 µM | > 100 µM | > 100 µM | > 100 µM |  | > 100 µM |  |  |  |  |  |  |  |  |  |  |  |  |
| COc1ccc(/C=C/COC(C)=O)cc1OC | > 100 µM | > 100 µM | > 100 µM | > 100 µM | > 100 µM | > 100 µM |  | > 100 µM |  |  |  |  |  |  |  |  |  |  |  |  |
| O=S1C(=c2ccc(=C3Sc4ccccc4S3)cc2)Sc2ccccc21 (stereo not given) | 37.6 µM | > 100 µM | 33.3 µM | 7 µM | > 100 µM | 35.8 µM | > 54.8 µM | 31.4 µM |  |  |  |  |  |  |  |  |  |  |  |  |
